The source of these data is patent US9233109B2, “Compositions, methods of use, and methods of treatment” (UNIVERSITY OF FLORIDA RESEARCH FOUNDATION, INC., priority 2010, dated 2016).

The target of assay [1] is T1, α7 nAChR (Homo sapiens, UniProt P36544).
T1 construct: expressed in transfected cells; host or cells: Xenopus laevis oocytes injected with cRNA
Description: Bath application of test compound: modulation of ACh-evoked net charge responses in Xenopus oocytes. The following applies: 30 minutes in bath. Type of assay: cell-based. The protocol:
(§1) We have extended this approach to defined receptor subtypes expressed in Xenopus oocytes. Experiments were conducted on cells expressing HS α4β2 (α4(2)β2(3)), LS α4β2 (α4(3)β2(2)), or α7 nAChR.
(§2) cDNA: Human nAChR receptor clones and concatamers were obtained from Dr. Jon Lindstrom (University of Pennsylvania, Philadelphia Pa.). The human RIC-3 clone, obtained from Dr. Millet Treinin (Hebrew University, Jerusalem Israel), was co-injected with α7 to improve the levels and speed of receptor expression.
(§3) Oocyte preparation: Oocytes were surgically removed from mature Xenopus laevis frogs and injected with 50 nl (5-20 ng) of appropriate nAChR subunit cRNAs as described previously (Horenstein et al., 2008).
(§4) Experiments were conducted using OpusXpress 6000A (Molecular Devices, Union City Calif.) and analyzed as described previously (Papke and Papke, 2002; Horenstein et al., 2008; Papke and Stokes, 2010).
(§5) Initial experiments were run for 50 minutes after the introduction of the experimental compounds into the bath.

Assay [2] relates to α4(3)β2(2), α4(2)β2(3), α4(2)β2(2)α5 and α7 nAChR. Description: Test of bupropion for receptor activation, oocytes. It counts as cell-based, human. The conditions noted are these: 300 nM to 300 μM.
Assay [3] addresses T2, α4β2α5 nAChR (Homo sapiens, UniProt P17787+P30532+P43681).
T2 construct: expressed in transfected cells; host or cells: Xenopus laevis oocytes injected with cRNA
The experiment in a line: Bupropion co-applied with ACh: inhibition of ACh-evoked responses, oocytes. It counts as cell-based. The following applies: co-applied with 3 μM ACh.

In assay [4] the target is T3, α4(2)β2(2)α5 nAChR (Homo sapiens, UniProt P17787+P30532+P43681).
T3 construct: expressed in transfected cells; host or cells: Xenopus laevis oocytes injected with cRNA
T3 sequence (P17787 26-502): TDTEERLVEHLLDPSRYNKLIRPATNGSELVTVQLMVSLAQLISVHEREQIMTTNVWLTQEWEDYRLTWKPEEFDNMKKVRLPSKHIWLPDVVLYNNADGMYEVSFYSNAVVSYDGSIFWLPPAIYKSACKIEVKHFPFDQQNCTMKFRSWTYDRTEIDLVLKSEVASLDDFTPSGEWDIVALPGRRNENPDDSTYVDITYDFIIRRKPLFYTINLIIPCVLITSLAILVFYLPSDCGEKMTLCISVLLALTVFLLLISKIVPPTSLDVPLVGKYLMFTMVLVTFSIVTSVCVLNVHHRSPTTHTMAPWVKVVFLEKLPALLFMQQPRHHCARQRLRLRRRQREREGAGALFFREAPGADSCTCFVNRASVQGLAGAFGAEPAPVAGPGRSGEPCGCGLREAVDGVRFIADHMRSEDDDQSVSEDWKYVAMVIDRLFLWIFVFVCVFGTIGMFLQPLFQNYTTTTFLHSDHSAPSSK
T3 sequence (P43681 29-627 limits assumed): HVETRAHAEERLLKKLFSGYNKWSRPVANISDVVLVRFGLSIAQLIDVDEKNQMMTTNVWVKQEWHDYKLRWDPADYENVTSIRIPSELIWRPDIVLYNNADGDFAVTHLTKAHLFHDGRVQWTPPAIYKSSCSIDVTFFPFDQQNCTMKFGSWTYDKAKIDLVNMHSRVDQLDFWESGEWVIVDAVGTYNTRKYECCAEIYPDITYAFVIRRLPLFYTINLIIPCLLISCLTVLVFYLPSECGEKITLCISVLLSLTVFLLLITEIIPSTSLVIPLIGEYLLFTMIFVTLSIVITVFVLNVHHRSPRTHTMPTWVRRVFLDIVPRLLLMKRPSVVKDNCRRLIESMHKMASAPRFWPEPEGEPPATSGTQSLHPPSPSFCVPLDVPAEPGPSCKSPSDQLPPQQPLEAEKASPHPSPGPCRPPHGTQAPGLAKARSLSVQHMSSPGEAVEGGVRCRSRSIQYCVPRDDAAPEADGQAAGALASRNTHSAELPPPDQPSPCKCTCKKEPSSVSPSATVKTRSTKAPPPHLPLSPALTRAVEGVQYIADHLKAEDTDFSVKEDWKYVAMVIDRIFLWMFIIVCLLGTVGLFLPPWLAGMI
T3 sequence (P30532 23-468): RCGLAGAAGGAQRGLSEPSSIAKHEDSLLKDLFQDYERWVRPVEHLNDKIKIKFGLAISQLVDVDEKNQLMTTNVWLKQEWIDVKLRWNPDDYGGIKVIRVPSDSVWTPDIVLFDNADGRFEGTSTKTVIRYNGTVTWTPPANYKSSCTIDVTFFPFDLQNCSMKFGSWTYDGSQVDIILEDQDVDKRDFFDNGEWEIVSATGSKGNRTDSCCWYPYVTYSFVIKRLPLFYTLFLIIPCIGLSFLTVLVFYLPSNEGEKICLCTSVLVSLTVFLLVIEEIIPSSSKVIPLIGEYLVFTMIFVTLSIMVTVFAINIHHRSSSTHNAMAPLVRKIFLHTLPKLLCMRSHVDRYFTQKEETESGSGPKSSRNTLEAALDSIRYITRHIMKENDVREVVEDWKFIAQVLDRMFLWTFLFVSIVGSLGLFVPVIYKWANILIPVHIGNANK
Description: Bath application of test compound: inhibition of ACh-evoked responses in Xenopus oocytes. Type of assay: cell-based. The following applies: 30 minutes in bath. The protocol:
as §2, §3, §4, §5
Recently, attention has been drawn to α5 as a member of a gene cluster associated with high risk for cancer and heavy smoking (Saccone et al., 2007). In the periphery, α5 is most likely expressed in association with the other members of its gene cluster, α3 and β4.

The target in assay [5] is T4, HS α4β2 (α4(2)β2(3)) nAChR (Homo sapiens, UniProt P17787+P43681).
T4 construct: expressed in transfected cells; host or cells: Xenopus laevis oocytes injected with cRNA
T4 sequence (P17787 26-502): as the sequence (P17787 26-502) above
T4 sequence (P43681 29-627 limits assumed): as the sequence (P43681 29-627 limits assumed) above
T4 sequence (P17787 26-502): as the sequence (P17787 26-502) above
The experiment in a line: Bath application of test compound: inhibition of ACh-evoked peak currents in Xenopus oocytes. It counts as cell-based. The following applies: 30 minutes in bath. The protocol:
as §1, §2, §3, §4, §5

Assay [6] concerns the target T5, LS α4β2 (α4(3)β2(2)) nAChR (Homo sapiens, UniProt P17787+P43681).
T5 construct: expressed in transfected cells; host or cells: Xenopus laevis oocytes injected with cRNA
The description is as above. Type of assay: cell-based. The following applies: 30 minutes in bath. The protocol:
as §1, §2, §3, §4, §5

The target of assay [7] is T6, α4(2)β2(3) nAChR (Homo sapiens, UniProt P17787+P43681).
T6 construct: expressed in transfected cells; host or cells: Xenopus laevis oocytes injected with cRNA
T6 sequence (P17787 26-502): as above
T6 sequence (P43681 29-627 limits assumed): as the sequence (P43681 29-627 limits assumed) above
T6 sequence (P17787 26-502): as the sequence (P17787 26-502) above
The experiment in a line: Bupropion co-applied with ACh: inhibition of ACh-evoked responses, oocytes. Type of assay: cell-based. The following applies: co-applied with 10 μM ACh. The protocol: as §5

Assay [8] deals with T7, α4(3)β2(2) nAChR (Homo sapiens, UniProt P17787+P43681).
T7 construct: expressed in transfected cells; host or cells: Xenopus laevis oocytes injected with cRNA
T7 sequence (P17787 26-502): as above
T7 sequence (P43681 29-627 limits assumed): as the sequence (P43681 29-627 limits assumed) above
T7 sequence (P43681 29-627 limits assumed): as above
Described as above. Type of assay: cell-based. The conditions noted are these: co-applied with 30 μM ACh. The protocol: as §5

Assay [9] addresses T1, α7 nAChR. Described as above. Type of assay: cell-based. The protocol:
as §5

T1 sequence (P36544 23-502): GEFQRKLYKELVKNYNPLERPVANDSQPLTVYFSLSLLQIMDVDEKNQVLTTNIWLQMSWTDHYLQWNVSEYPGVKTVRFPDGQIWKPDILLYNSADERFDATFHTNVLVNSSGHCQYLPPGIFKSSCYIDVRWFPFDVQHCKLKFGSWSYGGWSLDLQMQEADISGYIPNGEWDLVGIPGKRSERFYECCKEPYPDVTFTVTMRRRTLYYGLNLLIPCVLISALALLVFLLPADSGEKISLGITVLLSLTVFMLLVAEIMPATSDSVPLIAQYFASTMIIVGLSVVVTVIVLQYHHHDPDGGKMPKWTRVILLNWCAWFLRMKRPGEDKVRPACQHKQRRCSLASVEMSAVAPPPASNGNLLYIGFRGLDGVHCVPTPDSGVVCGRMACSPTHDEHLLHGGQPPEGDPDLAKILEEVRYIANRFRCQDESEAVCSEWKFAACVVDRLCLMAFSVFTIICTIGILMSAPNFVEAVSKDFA
T2 sequence (P17787 26-502): as the sequence (P17787 26-502) above
T2 sequence (P43681 29-627 limits assumed): as the sequence (P43681 29-627 limits assumed) above
T2 sequence (P30532 23-468): as the sequence (P30532 23-468) above
T5 sequence (P17787 26-502): as the sequence (P17787 26-502) above
T5 sequence (P43681 29-627 limits assumed): as the sequence (P43681 29-627 limits assumed) above
T5 sequence (P43681 29-627 limits assumed): as above

The term IC50 denotes the point on the concentration scale where inhibition reaches its midpoint. As to `CC(NC(C)(C)C)C(=O)c1cccc(Cl)c1` (centres unmarked) [bupropion], the “Bath application n (Hill slope of inhibition)” value is recorded as −1.5 ± 0.5 in assay [1], −0.47 ± 0.09 in assay [4], −0.40 ± 0.10 in assay [5] and −1.2 ± 0.4 in [6]. Further, the IC50 came out at 16 ± 3 µM in [1] (read-out: Bath application IC50) and 46 ± 7 µM in [9] (read-out: Co-application IC50). Moreover, in assay [2], the “receptor activation by bupropion” value is listed as “no activation above our level of detection”. Also, the “Co-application n (Hill slope of inhibition)” value was −0.70 ± 0.04 in [3], −0.80 ± 0.05 in assay [7], −0.93 ± 0.11 in assay [8] and −0.74 ± 0.09 in assay [9] (co-applied with 60 μM ACh).
